Data as given in patent US5705492A, “3'-O-aminoacyl ARA uridines, method of making, and antiviral activity” (Hoffmann-La Roche Inc., priority 1995, dated 1998).
Structures can show the parent of a compound that is named as a salt.

How the values were obtained:
HSV-1 thymidine kinase = HSV-1 thymidine kinase (Human herpesvirus 1, UniProt P0DTH5); experiment: inhibition of HSV-1 thymidine kinase; type: biochemical; settings: 3H-thymidine phosphorylation, 37° C., 30 minutes, pH 8; read-out: IC50 against HSV-1 thymidine kinase
Sequence of HSV-1 thymidine kinase (P0DTH5 whole entry): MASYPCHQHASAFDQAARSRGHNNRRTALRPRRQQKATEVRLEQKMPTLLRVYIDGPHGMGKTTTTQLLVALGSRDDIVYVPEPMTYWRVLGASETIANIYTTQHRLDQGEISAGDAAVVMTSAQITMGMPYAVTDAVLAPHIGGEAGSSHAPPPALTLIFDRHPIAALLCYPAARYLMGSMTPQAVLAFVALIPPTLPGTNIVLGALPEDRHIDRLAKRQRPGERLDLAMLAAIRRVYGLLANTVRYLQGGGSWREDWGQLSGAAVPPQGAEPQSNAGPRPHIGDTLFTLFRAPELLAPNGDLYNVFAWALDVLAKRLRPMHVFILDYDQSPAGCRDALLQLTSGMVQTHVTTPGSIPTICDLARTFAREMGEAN
Description: (§1) In this test procedure, the assay mixture contains 50 mmol Tris HCl, pH 8, 5 mmol magnesium chloride, 5 mmol ATP, 0.3 μmol ^3 H-thymidine (50 Ci/mmol), suitably diluted enzyme preparation and various concentrations of test compounds in a total volume of 100 μl. Assays are incubated at 37° C. for 30 minutes and the reaction is terminated by immersion in a boiling water bath for 2 minutes. 85 μl aliquots from each assay are then dried on to DEAE-cellulose paper discs and the unphosphorylated ^3 H-thymidine is removed by washing in 4 mmol ammonium formate. The radioactivity remaining bound to the discs is then measured by scintillation spectrophotometry. The degree of inhibition at each concentration of test compound is expressed as a percentage of the control reaction (100%) after subtracting a measured blank value which represents the amount of radioactivity bound to the disc from a reaction containing heat-inactivated enzymes. The IC50 value, namely the concentration of test compound which inhibits enzyme activity by 50%, is then calculated.

HSV-2 thymidine kinase = HSV-2 thymidine kinase (Human herpesvirus 2, UniProt P04407); experiment: inhibition of HSV-2 thymidine kinase; type: biochemical; settings: 3H-thymidine phosphorylation, 37° C., 30 minutes, pH 8; read-out: IC50 against HSV-2 thymidine kinase
Sequence of HSV-2 thymidine kinase (P04407 whole entry): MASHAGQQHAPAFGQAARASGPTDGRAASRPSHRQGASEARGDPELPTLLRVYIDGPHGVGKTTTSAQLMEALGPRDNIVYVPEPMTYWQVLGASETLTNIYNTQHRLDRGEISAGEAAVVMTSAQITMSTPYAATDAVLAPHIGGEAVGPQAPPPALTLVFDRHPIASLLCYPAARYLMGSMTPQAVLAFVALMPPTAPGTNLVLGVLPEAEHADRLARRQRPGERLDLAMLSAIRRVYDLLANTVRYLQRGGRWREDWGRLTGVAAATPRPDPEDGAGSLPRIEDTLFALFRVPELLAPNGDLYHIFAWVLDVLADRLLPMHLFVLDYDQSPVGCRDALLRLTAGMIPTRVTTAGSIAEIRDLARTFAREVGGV
Description: as §1

IC50 (HSV-1 thymidine kinase): 18 nM
IC50 (HSV-2 thymidine kinase): 1.1 nM
SMILES: CCc1cn([C@@H]2O[C@H](CNC(=O)[C@H](C)Oc3cc(OC)c(Cl)cc3Cl)[C@@H](OC(=O)[C@@H](N)C(C)C)[C@@H]2F)c(=O)[nH]c1=O [Example 1, 1-[5-[2(S)-(2,4-dichloro-5-methoxyphenoxy)propionamido]-1,5-dideoxy-2-fluoro-3-O-L-valyl-β-D-arabinofuranosyl]-5-ethyluracil hydrochloride]
